Read-outs that look alike come from different tables or passages of the source. A value given as a limit tells only on which side of the number the result lay.

The subject of assay [1] is Citrullinated Histone H3 in 4T1 (TNBC cell line) cells. Nature of the assay: 4T1 CECN ELISA assay. The class given is cell-based. The conditions noted are these: 4T1 cells, stimulation with 50 μM A23187 for 4 h, read-out: Average IC50 Abs. How it is done:
Cell culture: 4T1 cells were grown in DMEM+10% FBS+1% HEPES+1% PS. Cells plating: • 1) 4T1 cells were collected and the plate was centrifuged at 1000 rpm for 5 min. • 2) The 4T1 cells were diluted to 0.5×10^6 cells/mL and plated into a 96-well plate with 100 μL/well. The plate was then incubated in the incubator (5% CO2, 37° C.) for overnight to allow cells to adhere, exchanged fresh culture medium with 100 μL/well. Compound treatment: • 1) Preparation of compound serial dilution (source plate 500×, final DMSO concentration: 0.2%): briefly, compounds were dissolved in 100% DMSO to a concentration of 20 mM (the stock solution) and a 3-fold serial dilution with 8-point doses was performed. • 2) 10× compound solution was pipetted up and down; and 10 μL/well of compounds were added into each well and incubated for 30 min. Stimulation with 50 μM A23187: • 1) A solution of A23187 (500 μM) in complete DMDM (DMDM+10% FBS+1% PS+1 mM CaCl2) containing 150 U/mL S7 Nuclease was prepared. The obtained solution was added 10 μL/well into each well and incubated for 4 h in the incubator (5% CO2, 37° C.). • 2) The 4T1 cells treated with 10 μL/well complete DMDM without A23187 worked as negative control. Sample preparation: • 1) EDTA (0.5 M, 2 μL/well) were added to all the wells to stop the reaction. • 2) The plate was centrifuged at 1000 rpm for 5 min to collect supernatant. • 3) The supernatant was then diluted at least 1:2 before adding to the ELISA plate for citrullinated H3 analysis.
The standard was reconstituted with 2 mL of Assay buffer to 500 ng/mL. The reconstituted standard was relatively unstable at 4° C. and should be used within 3 hr after reconstitution.
• 1) 100 μL of the standards or diluted samples were added to the wells on the ELISA plate. • 2) The plate was covered with Cover Sheet and incubated for 2 h at RT on an orbital shaker.
On the day of the assay, the reagent was thawed at rt. For one plate, 1.2 mL of HRP Conjugate were diluted into 10.8 mL of assay buffer. A diluted HRP Conjugate was prepared shortly before use.
• 1) The wells were empties and rinsed four times with 1× wash buffer with 300 μL/well (Low speed). The plate was inverted between wash steps to empty the plate. After the last wash, the inverted plate was gently tapped on absorbent paper to remove the residual wash buffer. • 2) 100 μL of the HRP Conjugate working solution were added to each well of the plate. • 3) The plate was covered with cover sheet and incubated for 1 h at RT on an orbital shaker.
• 1) The wells were empties and rinsed four times with 1× wash buffer with 300 μL/well (low speed). The plate was inverted between wash steps to empty the plate. […] 100 μL of HRP STOP solution were added to each well of the plate.
• 1) Wipe the bottom of the plate with a clean tissue to remove fingerprints, dirt, etc. • 2) Read the plate at a wavelength of 450 nm.
The percent (%) inhibition at each concentration of compound was calculated based on and relative to the signal in the HPE and ZPE wells contained within each assay plate. The HPE wells worked as […], and the ZPE wells didn't contain any compound but rather DMSO (final concentration=[…]) as […]. The concentrations and % inhibition values for tested compounds were plotted and the concentration of compound required for 50% inhibition (IC50) was determined with a Four-parameter logistic dose response equation. The endpoint value (IC50) for the reference peptide/compound was evaluated in each experiment as a quality control measure. If the endpoint value is within 3-fold of the expected value then the experiment is deemed acceptable. The results of representative compounds of the present invention are provided in Table 3 below. ≤0.1 μM=“++++”; >0.1 and ≤0.5 μM=“+++”; >0.5 and ≤5.0 μM=“++”; >5.0 μM=“+”. “−”=not available.
(In general: In an ELISA, binding on a coated surface is turned into a signal by an enzyme label.)

Assay [2] concerns the target Protein arginine deiminase 4 (PAD4) (Homo sapiens, UniProt Q9UM07). Nature of the assay: PAD4 ammonia release assay. The class given is biochemical. Conditions: for IC50: PAD4 ammonia release assay, BAEE substrate, 60 min at RT, read-out: Average IC50 Abs; for relative potency of separated isomers in the PAD4 biochemical assay: SFC-separated stereoisomer pairs. Put shortly:
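Ammonia release from BAEE substrate (2× mix 600 μM) was measured after 60 min at RT, following 15 min enzyme–compound preincubation (PAD4 2× 20 nM; pH 8.0 HEPES, 2 mM CaCl2, TCEP; 1.25% DMSO). Detection used OPA/DTT/EDTA for 120 min. % inhibition was taken versus reference-compound and DMSO controls; IC50 by four-parameter logistic fit.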

Chain of Protein arginine deiminase 4 (PAD4) (Q9UM07 whole entry): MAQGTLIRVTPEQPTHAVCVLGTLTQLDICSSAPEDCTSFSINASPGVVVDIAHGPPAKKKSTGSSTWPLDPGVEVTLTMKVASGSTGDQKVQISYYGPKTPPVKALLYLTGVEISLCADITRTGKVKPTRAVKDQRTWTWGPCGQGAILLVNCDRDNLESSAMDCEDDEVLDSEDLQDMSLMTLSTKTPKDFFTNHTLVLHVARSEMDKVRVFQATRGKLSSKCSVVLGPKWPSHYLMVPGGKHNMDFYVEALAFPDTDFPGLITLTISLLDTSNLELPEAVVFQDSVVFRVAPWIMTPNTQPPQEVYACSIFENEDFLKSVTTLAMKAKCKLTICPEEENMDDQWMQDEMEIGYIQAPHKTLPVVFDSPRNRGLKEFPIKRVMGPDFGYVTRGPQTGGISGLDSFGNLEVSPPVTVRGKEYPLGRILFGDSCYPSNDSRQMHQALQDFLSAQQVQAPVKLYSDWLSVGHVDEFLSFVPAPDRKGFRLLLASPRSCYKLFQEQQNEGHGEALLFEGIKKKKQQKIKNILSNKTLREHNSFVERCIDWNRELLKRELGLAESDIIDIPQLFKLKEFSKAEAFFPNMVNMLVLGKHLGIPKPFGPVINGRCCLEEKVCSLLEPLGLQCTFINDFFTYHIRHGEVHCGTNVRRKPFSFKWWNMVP

Usually IC50 stands for the concentration needed to halve the response being measured. As to `CCC1CN(CCCO)c2cccc3cc(-c4nc5cc(C(=O)N6C[C@H](N)C[C@@H](F)C6)cc(OC)c5n4C)n1c23` (single isomer, unassigned) [Example 82], the IC50 in assay [1] (Mus musculus, 4T1, 4 h) is not above 100 nM. Besides, in assay [2], the IC50 was not above 100 nM and the “relative potency of separated isomers in the PAD4 biochemical assay” value is reported as “more potent than Example 81”.
`CCC1CN(CCCO)c2cccc3cc(-c4nc5cc(C(=O)N6C[C@H]7CC[C@@H]6[C@@H]7N)cc(OC)c5n4C)n1c23` (single isomer, unassigned) [Example 86]: the IC50 in assay [1] and in assay [2] was more than 5000 nM each time.
For `CCC1CN(CCCO)c2cccc3cc(-c4nc5cc(C(=O)N6C[C@H]7CC[C@@H]6[C@@H]7N)cc(OC)c5n4C)n1c23` (single isomer, unassigned) [Example 87], the IC50 in assay [1] is not above 100 nM. Further, in assay [2], the IC50 is 100 to 500 nM and the “relative potency of separated isomers in the PAD4 biochemical assay” value was “more potent than Example 86”.
Turning to `CCC1CN(CCCO)c2cccc3cc(-c4nc5cc(C(=O)N6C[C@H](N)C[C@@H](F)C6)cc(F)c5n4C)n1c23` (stereo partly drawn) [Example 75, ((3R,5R)-3-amino-5-fluoropiperidin-1-yl)(2-(3-ethyl-1-(3-hydroxypropyl)-2,3-dihydro-1H-pyrrolo[1,2,3-de]quinoxalin-5-yl)-7-fluoro-1-methyl-1H-benzo[d]imidazol-5-yl)methanone], the IC50 in assay [1] (Mus musculus, 4T1, 4 h) fell in the range of 100 to 500 nM; in assay [2], 100 to 500 nM.
In the case of `C#CCn1c(-c2cc3cccc4c3n2C(CC)CN4CCCO)nc2cc(C(=O)N3C[C@H](N)C[C@@H](F)C3)cc(OC)c21` (stereo partly drawn) [Example 95, ((3R,5R)-3-amino-5-fluoropiperidin-1-yl)(2-(3-ethyl-1-(3-hydroxypropyl)-2,3-dihydro-1H-pyrrolo[1,2,3-de]quinoxalin-5-yl)-7-methoxy-1-(prop-2-yn-1-yl)-1H-benzo[d]imidazol-5-yl)methanone], the IC50 in assay [1] (Mus musculus, 4T1, 4 h) was not above 100 nM; in assay [2] it was 100 to 500 nM.
Turning to `CCC1CN(CCCO)c2cccc3cc(-c4nc5cc(C(=O)N6C[C@H]7CC[C@@H]6[C@@H]7N)cc(F)c5n4CC)n1c23` (stereo partly drawn) [Example 96, ((1R,4R,7R)-7-amino-2-azabicyclo[2.2.1]heptan-2-yl)(1-ethyl-2-(3-ethyl-1-(3-hydroxypropyl)-2,3-dihydro-1H-pyrrolo[1,2,3-de]quinoxalin-5-yl)-7-fluoro-1H-benzo[d]imidazol-5-yl)methanone], the IC50 in assay [1] (Mus musculus) and in assay [2] was 100 to 500 nM in each case.

The record behind these values is patent US20250136607A1 (REGOR PHARMACEUTICALS, INC., priority 2021, published 2025).
